IC50 data for 58 compounds are collected here from patent US11198695B2, “Fused ring derivative having MGAT-2 inhibitory activity” (Shionogi & Co., Ltd., priority 2017, dated 2021).

For the assay, the target named is recombinant human MGAT2 (Homo sapiens (Human), UniProt Q3SYC2). Kind of assay: Measurement of human MGAT2 inhibitory activity. Type of assay: biochemical. The procedure, abridged: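 Membrane fraction of Sf9 cells expressing N-terminally Flag-tagged full-length human MGAT2, incubated 1 h at room temperature in 100 mmol/L phosphate pH 7.4 with 2 mmol/L DTT. The substrate solution held 30 μmol/L 2-oleoylglycerol and 10 μmol/L oleoyl-CoA. Diolein product was quantified by RapidFire ESI Q-TOF MS against diolein-d5 internal standard; % inhibition was set relative to with/without-enzyme controls.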

The mark [1] stands for this setting: read-out: IC50 (concentration exhibiting 50% enzyme inhibition), Table 52.
Setting [2] is: read-out: IC50 (concentration exhibiting 50% enzyme inhibition), Table 53.

Where two headings read alike, the source gives them in different places.

Chain of recombinant human MGAT2 (Q3SYC2 whole entry): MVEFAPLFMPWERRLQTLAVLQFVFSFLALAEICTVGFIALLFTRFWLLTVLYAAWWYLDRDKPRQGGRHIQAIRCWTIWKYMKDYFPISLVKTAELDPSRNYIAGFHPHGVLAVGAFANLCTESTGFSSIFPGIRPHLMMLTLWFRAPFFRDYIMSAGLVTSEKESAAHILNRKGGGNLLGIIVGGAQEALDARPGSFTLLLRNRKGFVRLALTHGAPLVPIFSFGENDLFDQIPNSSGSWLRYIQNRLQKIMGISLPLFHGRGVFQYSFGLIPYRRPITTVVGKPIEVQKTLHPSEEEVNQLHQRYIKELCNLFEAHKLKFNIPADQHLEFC

As to `O=C1N[C@@]2(CCc3cc(OCC(F)(F)F)cc(F)c32)Cc2nn(-c3ccccn3)c(-c3nnn[nH]3)c21` [Compound I-107], under setting [1], the IC50 was found to be 760 nM. On the same count and under the same terms, next, `CS(=O)(=O)CC(=O)NCc1c2c(nn1CCC1CC1)C[C@]1(CCc3cc(OCCCC(F)(F)F)ccc31)NC2=O` [Compound I-21]: 17 nM; `CS(=O)(=O)CC(=O)Nc1c2c(nn1-c1cccc3c1CCC3)C[C@]1(CCc3cc(OCCCC(F)(F)F)ccc31)NC2=O` [Compound I-41]: 79 nM; `COCCS(=O)(=O)NC(=O)c1c2c(nn1CCC1CC1)C[C@]1(CCc3cc(OCC(F)(F)F)ccc31)NC2=O` [Compound I-112]: 44.5 nM.

For the compound `CS(=O)(=O)CC(=O)Nc1c2c(nn1-c1ccc(Cl)cn1)C[C@]1(CCc3cc(OCC(F)(F)F)ccc31)NC2=O` [Compound I-77], under setting [1], the IC50 worked out at 1 nM. For the compound `CNC(=O)c1c2c(nn1-c1ccc(C#N)cn1)C[C@]1(CCc3cc(OCC(F)(F)F)ccc31)NC2=O` [II-170], the IC50 under setting [2] turned out to be 46.7 nM.

With `Cc1ccc(-n2nc(NC(=O)CS(C)(=O)=O)c3c2C[C@]2(CCc4cc(OCCCC(F)(F)F)ccc42)NC3=O)cc1` [Compound I-48], the IC50 under setting [1] was 195 nM.

For `CS(=O)(=O)CC(=O)Nc1c2c(nn1-c1ccc(C#N)cn1)CC1(CN(C(=O)c3ccc(C(F)(F)F)cc3)C1)NC2=O` [II-29], the IC50 under setting [2] stood at 220 nM. Still for that read-out and setting: as for `CS(=O)(=O)CC(=O)Nc1c2c(nn1-c1ccc(C(F)F)cn1)C[C@]1(CCc3cc(OCC(F)(F)F)ccc31)NC2=O` [II-297], the figure is less than 1 nM. With `O=C1N[C@@]2(CCc3cc(OCCCC(F)(F)F)ccc32)Cc2nn(CCC3CC3)c(C(=O)NS(=O)(=O)C3CC3)c21` [Compound I-72], under setting [1], the IC50 was found to be 8.3 nM. For the compound `N#CCNC(=O)c1c2c(nn1-c1ccc(C#N)cn1)C[C@@]1(CCc3cc(OCC(F)(F)F)ccc31)NC2=O` [II-243], the IC50 under setting [2] is 1.74 nM. Consider `O=C1N[C@@]2(CCc3cc(OCC(F)(F)F)ccc32)Cc2nn(CCC3CC3)c(C(=O)NCCO)c21` [Compound I-85], for which the IC50 under setting [1] stood at 570 nM. On to `CCOC1CN(c2ccc3c(c2)CC[C@@]32Cc3nn(CCC4CC4)c(NC(=O)CS(C)(=O)=O)c3C(=O)N2)C1` [II-42], for which the IC50 under setting [2] was found to be 46 nM. On the same count and under the same terms, next, `Cc1ccc(-n2nc3c(c2C(=O)NCCC(F)(F)F)C(=O)N[C@@]2(CCc4cc(OCC(F)(F)F)ccc42)C3)nc1` [II-195]: 29.8 nM. Take `COc1ccc(-n2nc3c(c2NC(=O)CS(C)(=O)=O)C(=O)N[C@@]2(CCc4cc(OCC(F)(F)F)ccc42)C3)cc1` [Compound I-100]: the IC50 under setting [1] was 32 nM.

`CS(=O)(=O)CC(=O)Nc1c2c(nn1CCCOC(F)(F)F)C[C@@]1(CCc3cc(OCC(F)(F)F)ccc31)NC2=O` [II-20]: under setting [2], the IC50 was 1.56 nM. For `CC1(S(=O)(=O)NC(=O)c2c3c(nn2CCC2CC2)C[C@]2(CCc4cc(OCC(F)(F)F)ccc42)NC3=O)CC1` [Compound I-110], the IC50 under setting [1] was determined as 10 nM. In the case of `CNC(=O)CNC(=O)c1c2c(nn1-c1ccc(C#N)cn1)C[C@]1(CCc3cc(OCC(F)(F)F)ccc31)NC2=O` [II-181], the IC50 under setting [2] turned out to be 28.7 nM.

For `Cc1ccc(-n2nc3c(c2NC(=O)CS(C)(=O)=O)C(=O)N[C@@](c2ccc(OCC(F)(F)F)cc2F)(C(F)(F)F)C3)nc1` [II-162], the IC50 under setting [2] was determined as 5.67 nM. The same measure, in the same setting: as for `COC1CN(c2ccc3c(c2)CC[C@]32Cc3nn(-c4ccc(C#N)cn4)c(NC(=O)CS(C)(=O)=O)c3C(=O)N2)C1` [II-57], the figure is 66 nM; as for `Cc1ccc(-n2nc3c(c2C(=O)NCC2(O)CC2)C(=O)N[C@@]2(CCc4cc(OCC(F)(F)F)ccc42)C3)cc1F` [II-221], 6.87 nM. As for `CS(=O)(=O)CC(=O)Nc1c2c(nn1CCC1CC1)C[C@]1(CCc3cc(NCC(F)(F)F)ccc31)NC2=O` [Compound I-102], under setting [1], the IC50 was found to be 25 nM. Turning to `Cc1cccc(-n2nc3c(c2NC(=O)CS(C)(=O)=O)C(=O)N[C@@]2(CCOc4cc(OCC(F)(F)F)ccc42)C3)c1` [II-5], the IC50 under setting [2] stood at 4.6 nM. On the same count and under the same terms, as for `CS(=O)(=O)CC(=O)Nc1c2c(nn1-c1ccc(C#N)cn1)C[C@]1(CCc3cc(OCC(F)(F)F)ccc31)NC2=O` [II-143], the figure is 0.706 nM.

On to `O=C1N[C@@]2(CCc3cc(OCC(F)(F)F)ccc32)Cc2nn(CCC3CC3)c(C(=O)NC3CCOC3)c21` (stereo partly shown) [Compound I-86], for which, under setting [1], the IC50 was 960 nM. On to `O=C(Nc1c2c(nn1CCC1CC1)C[C@]1(CCc3cc(OCC(F)(F)F)ccc31)NC2=O)c1ncco1` [Compound I-225], for which the IC50 under setting [1] amounted to 40 nM. Same read-out and setting: next, `CCOCCn1nc2c(c1NC(=O)CS(C)(=O)=O)C(=O)N[C@@]1(CCc3cc(OCC(F)(F)F)ccc31)C2` [Compound I-250]: 150 nM.

Regarding `CS(=O)(=O)CC(=O)Nc1c2c(nn1CCCOC(F)(F)F)C[C@@]1(CCOc3cc(C4CC4)ccc31)NC2=O` [II-279], the IC50 under setting [2] is 1.12 nM. Consider `O=C(CC(F)(F)F)Nc1c2c(nn1CCC1CC1)C[C@]1(CCc3cc(OCCCC(F)(F)F)ccc31)NC2=O` [Compound I-26], for which, under setting [1], the IC50 turned out to be 15 nM. Same read-out and setting: as for `Cc1cccc(-n2nc3c(c2NC(=O)CS(C)(=O)=O)C(=O)N[C@@]2(CCc4cc(OCCCC(F)(F)F)ccc42)C3)c1` [Compound I-179], the figure is 6.1 nM.

On to `Cc1ccc(-n2nc3c(c2NC(=O)CS(C)(=O)=O)C(=O)N[C@@]2(CCc4cc(C5CC5)ccc42)C3)nn1` [II-302], for which, under setting [2], the IC50 is 3.61 nM.

For `Cc1ccc(-n2nc3c(c2C(=O)NCC2(O)CC2)C(=O)N[C@@]2(CCOc4cc(OCC(F)(F)F)ccc42)C3)nc1` [II-230], under setting [2], the IC50 was 14.2 nM. `CS(=O)(=O)CC(=O)Nc1c2c(nn1CCc1ccccc1)C[C@]1(CCc3cc(OCCCC(F)(F)F)ccc31)NC2=O` [Compound I-52]: the IC50 under setting [1] came out at 24 nM.

As for `Cc1ccc(-n2nc3c(c2C(=O)NCC2(C(F)F)CC2)C(=O)N[C@@]2(CCOc4cc(OCC(F)(F)F)ccc42)C3)nc1` [II-232], under setting [2], the IC50 is 67.3 nM.

Take `O=C1N[C@@]2(CCc3cc(OCC(F)(F)F)ccc32)Cc2nn(CCCOC(F)F)c(C(=O)NS(=O)(=O)C3CC3)c21` [II-262]: under setting [2], the IC50 is 8.83 nM. On to `Cc1ccc(-n2nc3c(c2NC(=O)CS(C)(=O)=O)C(=O)N[C@](C)(c2ccc(N4CC(F)(F)C4)cc2F)C3)nc1` [II-177], for which, under setting [2], the IC50 was 5.86 nM. Same read-out and setting: as for `N#Cc1ccc(-n2nc3c(c2C(=O)NCC2(CO)CCC2)C(=O)N[C@@]2(CCc4cc(OCC(F)(F)F)ccc42)C3)nc1` [II-116], the figure is 3.96 nM. Consider `CS(=O)(=O)CC(=O)Nc1nn(CCC2CCCCC2)c2c1C(=O)N[C@@]1(CCc3cc(OCCCC(F)(F)F)ccc31)C2` [Compound I-65], for which the IC50 under setting [1] turned out to be 660 nM. `CS(=O)(=O)NC(=O)c1c2c(nn1-c1ccc(C#N)cn1)C[C@]1(CCc3cc(OCC(F)(F)F)ccc31)NC2=O` [II-214]: the IC50 under setting [2] was 26.3 nM. As to `O=C(Nc1c2c(nn1CCC1CC1)C[C@]1(CCc3cc(OCC(F)(F)F)ccc31)NC2=O)c1ccncc1` [Compound I-80], the IC50 under setting [1] was found to be 16 nM.

As for `CS(=O)(=O)CC(=O)Nc1c2c(nn1CCc1ccc(F)cc1)C[C@]1(CCOc3cc(OCC(F)(F)F)ccc31)NC2=O` [II-28], the IC50 under setting [2] was 8.7 nM.

For `N#CCNC(=O)c1c2c(nn1-c1ccc(C#N)cn1)C[C@]1(CCc3cc(OCC(F)(F)F)ccc31)NC2=O` [II-128], the IC50 under setting [2] is 10.2 nM.

For the compound `CS(=O)(=O)CC(=O)Nc1c2c(nn1Cc1nc(C(F)(F)F)cs1)C[C@]1(CCc3cc(OCCCC(F)(F)F)ccc31)NC2=O` [Compound I-209], under setting [1], the IC50 was 3.2 nM.

`CS(=O)(=O)CC(=O)Nc1c2c(nn1-c1cc(C(F)(F)F)on1)C[C@]1(CCOc3cc(OCC(F)(F)F)ccc31)NC2=O` [II-256]: the IC50 under setting [2] is 5.26 nM.

With `CC(=O)Nc1c2c(nn1CCC1CC1)C[C@]1(CCc3cc(OCCCC(F)(F)F)ccc31)NC2=O` [Compound I-4], under setting [1], the IC50 turned out to be 330 nM.

Consider `CS(=O)(=O)CC(=O)Nc1c2c(nn1-c1ccc(C3CC3)cc1)C[C@]1(CCc3cc(OCCCC(F)(F)F)ccc31)NC2=O` [Compound I-106], for which the IC50 under setting [1] stood at 11 nM. Consider `Cc1ccc(-n2nc3c(c2NC(=O)CS(C)(=O)=O)C(=O)N[C@@]2(C3)c3ccc(OCC(F)(F)F)cc3CC2(F)F)nc1` [II-86], for which the IC50 under setting [2] was 3.37 nM. `CS(=O)(=O)CC(=O)Nc1nn(CC2CCC(C(F)(F)F)CC2)c2c1C(=O)N[C@@]1(CCc3cc(OCCCC(F)(F)F)ccc31)C2` (stereo partly shown) [Compound I-73]: under setting [1], the IC50 is 290 nM. Consider `Cc1cnoc1C(=O)Nc1c2c(nn1CCC1CC1)C[C@]1(CCc3cc(OCC(F)(F)F)ccc31)NC2=O` [Compound I-226], for which the IC50 under setting [1] worked out at 90 nM.

Consider `CS(=O)(=O)CC(=O)Nc1c2c(nn1-c1ccc(Cl)c(F)c1)C[C@]1(CCc3cc(OCC(F)(F)F)ccc31)NC2=O` [II-137], for which, under setting [2], the IC50 was found to be 4.79 nM. On to `CS(=O)(=O)CC(=O)Nc1c2c(nn1CCC1CC1)C[C@]1(CCc3cc(CCC(F)(F)F)ccc31)NC2=O` [Compound I-35], for which the IC50 under setting [1] amounted to 6.8 nM.

Take `CN(C)CCn1nc2c(c1NC(=O)CS(C)(=O)=O)C(=O)N[C@@]1(CCc3cc(OCCCC(F)(F)F)ccc31)C2` [Compound I-46]: the IC50 under setting [1] was 440 nM.

In the case of `Cc1ccc(-n2nc3c(c2C(=O)NCC(N)=O)C(=O)N[C@@]2(CCOc4cc(OCC(F)(F)F)ccc42)C3)nc1` [II-229], under setting [2], the IC50 came to 64.8 nM.

Turning to `CS(=O)(=O)CC(=O)Nc1c2c(nn1CCn1cccn1)C[C@@]1(CCc3cc(OCC(F)(F)F)ccc31)NC2=O` [II-22], the IC50 under setting [2] was found to be 32 nM. The same measure, in the same setting: next, `Cc1ccc(-n2nc3c(c2NC(=O)CS(C)(=O)=O)C(=O)N[C@@]2(CCOc4cc(OCC(F)F)ccc42)C3)nc1` [II-146]: 2.55 nM; `COc1ccc(-n2nc3c(c2NC(=O)CS(C)(=O)=O)C(=O)N[C@@]2(CCOc4cc(OCC(F)(F)F)ccc42)C3)cc1` [II-6]: 19 nM. For `CS(=O)(=O)CC(=O)Nc1c2c(nn1-c1cccc3ccccc13)C[C@]1(CCc3cc(OCCCC(F)(F)F)ccc31)NC2=O` [Compound I-39], under setting [1], the IC50 amounted to 930 nM.

Turning to `CS(=O)(=O)CC(=O)Nc1c2c(nn1CC1CCOCC1)C[C@]1(CCc3cc(OCCCC(F)(F)F)ccc31)NC2=O` [Compound I-205], under setting [1], the IC50 turned out to be 270 nM.
